Assay results taken from ChEMBL document CHEMBL1201862, “PubChem BioAssay data set” (2004).
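Cultured in 96-well plates, cells were exposed to test compound for 48 hours across five concentrations. Abbreviation: GI50, concentration required for 50% inhibition of growth.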 Activity calls are given as the source filed them. No stated cut-off is given here; in the data, active = GI50 up to about 1.1 µM and inactive = higher.

Key:
Assay in all cases: growth of human tumour cells (NCI), 48 h
786-0 = test system: 786-0
CAKI-1 = test system: CAKI-1
HCT-116 = test system: HCT-116
HOP-62 = test system: HOP-62
HOP-92 = test system: HOP-92
Hs-578T = test system: Hs-578T
MDA-MB-231 = test system: MDA-MB-231
MOLT-4 = test system: MOLT-4
NCI-H226 = test system: NCI-H226
NCI-H23 = test system: NCI-H23
OVCAR-3 = test system: OVCAR-3
SF-295 = test system: SF-295
SK-MEL-28 = test system: SK-MEL-28
SK-OV-3 = test system: SK-OV-3
SN12C = test system: SN12C
SNB-19 = test system: SNB-19
TK-10 = test system: TK-10
U-251 = test system: U-251
UO-31 = test system: UO-31
M19-MEL = test system: M19-MEL

SMILES | GI50 (786-0) | GI50 (CAKI-1) | GI50 (HCT-116) | GI50 (HOP-62) | GI50 (HOP-92) | GI50 (Hs-578T) | GI50 (MDA-MB-231) | GI50 (MOLT-4) | GI50 (NCI-H226) | GI50 (NCI-H23) | GI50 (OVCAR-3) | GI50 (SF-295) | GI50 (SK-MEL-28) | GI50 (SK-OV-3) | GI50 (SN12C) | GI50 (SNB-19) | GI50 (TK-10) | GI50 (U-251) | GI50 (UO-31) | GI50 (M19-MEL)
Oc1c(Cl)ccc2cccnc12 | 6.18 µM (inactive) | 3.25 µM (inactive) | 1.79 µM (inactive) | 3.75 µM (inactive) | < 0.01 µM (active) | 4.32 µM (inactive) | 3.76 µM (inactive) | 1.84 µM (inactive) | 5.12 µM (inactive) | 5.06 µM (inactive) | 2.09 µM (inactive) | 2.79 µM (inactive) | 22.8 µM (inactive) | 4.71 µM (inactive) | 4.58 µM (inactive) | 13.3 µM (inactive) | 4.36 µM (inactive) | 3.69 µM (inactive) | 3.35 µM (inactive) | –
Cn1cc(-c2cnc(-c3cn(C)c4ccccc34)cn2)c2ccccc21 | 4.6 µM (inactive) | 6.67 µM (inactive) | 3.4 µM (inactive) | 6.59 µM (inactive) | 12.9 µM (inactive) | 2.57 µM (inactive) | 15 µM (inactive) | 5.66 µM (inactive) | 6.31 µM (inactive) | 4.25 µM (inactive) | 3.04 µM (inactive) | 2.44 µM (inactive) | 6.37 µM (inactive) | 14.6 µM (inactive) | 8.85 µM (inactive) | 4.71 µM (inactive) | 18.6 µM (inactive) | 4.06 µM (inactive) | 4.79 µM (inactive) | –
Cc1cc(NC[C@H](O)[C@H](O)[C@H](O)CO)c(Sc2cc(=O)[nH]c(=O)[nH]2)cc1C | > 62.5 µM (inactive) | > 62.5 µM (inactive) | > 62.5 µM (inactive) | > 62.5 µM (inactive) | > 62.5 µM (inactive) | > 62.5 µM (inactive) | > 62.5 µM (inactive) | > 62.5 µM (inactive) | > 62.5 µM (inactive) | > 62.5 µM (inactive) | > 62.5 µM (inactive) | > 62.5 µM (inactive) | > 62.5 µM (inactive) | > 62.5 µM (inactive) | > 62.5 µM (inactive) | > 62.5 µM (inactive) | > 62.5 µM (inactive) | > 62.5 µM (inactive) | > 62.5 µM (inactive) | –
O=C1CCCCC1CN1CCCC1 (stereo not given) | > 100 µM (inactive) | – | > 100 µM (inactive) | > 100 µM (inactive) | – | – | – | > 100 µM (inactive) | > 100 µM (inactive) | > 100 µM (inactive) | > 100 µM (inactive) | > 100 µM (inactive) | > 100 µM (inactive) | > 100 µM (inactive) | > 100 µM (inactive) | – | > 100 µM (inactive) | > 100 µM (inactive) | – | > 100 µM (inactive)
CC1(C)CC(=O)C2=C(C1)NC1=C(C(=O)CC(C)(C)C1)C2c1ccc([N+](=O)[O-])cc1 | > 100 µM (inactive) | > 100 µM (inactive) | > 100 µM (inactive) | > 100 µM (inactive) | > 100 µM (inactive) | > 100 µM (inactive) | > 100 µM (inactive) | > 100 µM (inactive) | > 100 µM (inactive) | > 100 µM (inactive) | > 100 µM (inactive) | > 100 µM (inactive) | > 100 µM (inactive) | > 100 µM (inactive) | > 100 µM (inactive) | > 100 µM (inactive) | > 100 µM (inactive) | > 100 µM (inactive) | > 100 µM (inactive) | –
CCO/N=C(/CC)c1ccc(Br)s1 | > 100 µM (inactive) | > 100 µM (inactive) | > 100 µM (inactive) | > 100 µM (inactive) | > 100 µM (inactive) | > 100 µM (inactive) | > 100 µM (inactive) | 53.5 µM (inactive) | > 100 µM (inactive) | > 100 µM (inactive) | > 100 µM (inactive) | > 100 µM (inactive) | > 100 µM (inactive) | > 100 µM (inactive) | > 100 µM (inactive) | > 100 µM (inactive) | > 100 µM (inactive) | > 100 µM (inactive) | > 100 µM (inactive) | –
CCOC(=O)C(=O)/C(=C/n1c(=S)[nH]c2ccc([N+](=O)[O-])cc21)C(=O)OCC | > 100 µM (inactive) | > 100 µM (inactive) | > 100 µM (inactive) | > 100 µM (inactive) | > 100 µM (inactive) | > 100 µM (inactive) | > 100 µM (inactive) | > 100 µM (inactive) | 60 µM (inactive) | > 100 µM (inactive) | > 100 µM (inactive) | > 100 µM (inactive) | > 100 µM (inactive) | > 100 µM (inactive) | > 100 µM (inactive) | > 100 µM (inactive) | > 100 µM (inactive) | > 100 µM (inactive) | > 100 µM (inactive) | –
C[C@@]12C[C@@H](c3ccccc3O1)N1Cc3ccccc3CSC1=N2 | 38.8 µM (inactive) | > 100 µM (inactive) | 49.7 µM (inactive) | > 100 µM (inactive) | > 100 µM (inactive) | > 100 µM (inactive) | > 100 µM (inactive) | 56.6 µM (inactive) | > 100 µM (inactive) | > 100 µM (inactive) | 35.4 µM (inactive) | > 100 µM (inactive) | > 100 µM (inactive) | > 100 µM (inactive) | > 100 µM (inactive) | > 100 µM (inactive) | 57.7 µM (inactive) | 52.8 µM (inactive) | > 100 µM (inactive) | –
Cc1cc2c(c(/C=N/c3ccc([N+](=O)[O-])cc3)c1)OC1(C=C2)Oc2ccccc2C(=O)N1C (stereo not given) | 22.6 µM (inactive) | 13.8 µM (inactive) | 14.6 µM (inactive) | 29.9 µM (inactive) | 24.1 µM (inactive) | 27.2 µM (inactive) | 16.9 µM (inactive) | 4.94 µM (inactive) | 16 µM (inactive) | 18.2 µM (inactive) | 29.4 µM (inactive) | 24.4 µM (inactive) | 19.9 µM (inactive) | 22.2 µM (inactive) | 20.5 µM (inactive) | 34.4 µM (inactive) | 24.5 µM (inactive) | 21.7 µM (inactive) | 13.5 µM (inactive) | –
CC(NC(=O)c1c(O)[nH]c(=S)[nH]c1=O)c1ccc([N+](=O)[O-])cc1 (stereo not given) | 94.6 µM (inactive) | > 100 µM (inactive) | 61 µM (inactive) | 58.3 µM (inactive) | 39.7 µM (inactive) | > 100 µM (inactive) | 60.7 µM (inactive) | 29.1 µM (inactive) | 70.1 µM (inactive) | 88.1 µM (inactive) | 36.1 µM (inactive) | > 100 µM (inactive) | > 100 µM (inactive) | > 100 µM (inactive) | > 100 µM (inactive) | 57.5 µM (inactive) | > 100 µM (inactive) | 32.5 µM (inactive) | > 100 µM (inactive) | –
CSc1c(C#N)c(N)n2c1C(=O)N(c1ccccc1)C2=S | 32.6 µM (inactive) | 77.1 µM (inactive) | 38.3 µM (inactive) | 63 µM (inactive) | 31.3 µM (inactive) | 28 µM (inactive) | 20.3 µM (inactive) | > 100 µM (inactive) | > 100 µM (inactive) | 28.2 µM (inactive) | > 100 µM (inactive) | 38.6 µM (inactive) | > 100 µM (inactive) | 91.6 µM (inactive) | 74 µM (inactive) | > 100 µM (inactive) | > 100 µM (inactive) | 41.9 µM (inactive) | > 100 µM (inactive) | –
CC(C)(C)OC(=O)N(O)[C@@H]1C=C[C@H](n2cnc3c(N)ncnc32)C1 | > 100 µM (inactive) | > 100 µM (inactive) | > 100 µM (inactive) | 43 µM (inactive) | > 100 µM (inactive) | 92.3 µM (inactive) | > 100 µM (inactive) | > 100 µM (inactive) | 26.5 µM (inactive) | > 100 µM (inactive) | > 100 µM (inactive) | > 100 µM (inactive) | > 100 µM (inactive) | > 100 µM (inactive) | > 100 µM (inactive) | > 100 µM (inactive) | > 100 µM (inactive) | > 100 µM (inactive) | > 100 µM (inactive) | –
O=S1(=O)c2ccccc2N(c2ccccc2)c2nnnn21 | 17.1 µM (inactive) | 17.6 µM (inactive) | 26.4 µM (inactive) | 21 µM (inactive) | 35 µM (inactive) | 56.6 µM (inactive) | 25.6 µM (inactive) | 19.5 µM (inactive) | 36.1 µM (inactive) | 28.5 µM (inactive) | 18.5 µM (inactive) | 47 µM (inactive) | 22.4 µM (inactive) | 42.3 µM (inactive) | 19.1 µM (inactive) | 23.3 µM (inactive) | 38.5 µM (inactive) | 32.7 µM (inactive) | 39.5 µM (inactive) | –
Cc1sc2ncnc(NCCc3ccccc3)c2c1C | 16 µM (inactive) | 7.53 µM (inactive) | 6.04 µM (inactive) | 12.8 µM (inactive) | 0.94 µM (active) | 20.7 µM (inactive) | 14.6 µM (inactive) | 14.9 µM (inactive) | 11.6 µM (inactive) | 10.9 µM (inactive) | 14.2 µM (inactive) | 4.78 µM (inactive) | 17.8 µM (inactive) | 22.6 µM (inactive) | 10.6 µM (inactive) | 23.7 µM (inactive) | 11.4 µM (inactive) | 11.6 µM (inactive) | 15.6 µM (inactive) | –
[C-]#[N+]C(=C\c1ccc(O)cc1)/C(=C/c1ccc(O)cc1)[N+]#[C-] [XANTOCILLIN] | 6.4 µM (inactive) | 2.25 µM (inactive) | 0.6 µM (active) | 3.21 µM (inactive) | 2.9 µM (inactive) | 0.718 µM (active) | 2.74 µM (inactive) | 1.57 µM (inactive) | 2.37 µM (inactive) | 2.31 µM (inactive) | 2.33 µM (inactive) | 4.02 µM (inactive) | 2.61 µM (inactive) | 3.39 µM (inactive) | 2.06 µM (inactive) | 2.55 µM (inactive) | 3.01 µM (inactive) | 1.57 µM (inactive) | 1.48 µM (inactive) | –
